From PMC7156458, “Synthetic biology based construction of biological activity-related library of fungal decalin-containing diterpenoid pyrones” (Nature Communications, 2020)

Target: Aβ42 (Homo sapiens, UniProt P05067)
Experiment: Th-T (thioflavin-T) assay of Aβ42 aggregation
Format: biochemical

Chain of Aβ42 (P05067 672-713): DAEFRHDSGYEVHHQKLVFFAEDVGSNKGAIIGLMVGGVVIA

C=C1CC[C@@H]2[C@](C)(CC[C@H]3O[C@H](C=C(C)C)C[C@@]23C)[C@@H]1Cc1c(OC)oc(CO)c(C)c1=O [Compound 20]
Fig. 7a Th-T reading, mean of three wells (column suffix _20, reading M101): 3.25
Fig. 7a Th-T reading, mean of three wells (column suffix _20, reading M102): 3.237
Fig. 7a Th-T reading, mean of three wells (column suffix _20, reading M103): 3.23
Fig. 7a Th-T reading, mean of three wells (column suffix _20, reading M104): 3.246
Fig. 7a Th-T reading, mean of three wells (column suffix _20, reading M105): 3.269
Fig. 7a Th-T reading, mean of three wells (column suffix _20, reading M106): 3.248
Th-T fluorescence, mean of three wells (Fig. 7a) (column suffix _50, measurement M19): 2.199
Th-T fluorescence, mean of three wells (Fig. 7a) (column suffix _50, measurement M20): 2.217
Th-T fluorescence, mean of three wells (Fig. 7a) (column suffix _50, measurement M21): 2.224
Th-T fluorescence, mean of three wells (Fig. 7a) (column suffix _50, measurement M22): 2.216
Th-T fluorescence, mean of three wells (Fig. 7a) (column suffix _50, measurement M23): 2.205
Th-T fluorescence, mean of three wells (Fig. 7a) (column suffix _50, measurement M24): 2.2076
Th-T fluorescence, mean of three wells (Fig. 7a) (column suffix _50, measurement M25): 2.21
Th-T fluorescence, mean of three wells (Fig. 7a) (column suffix _50, measurement M26): 2.22
Th-T fluorescence, mean of three wells (Fig. 7a) (column suffix _50, measurement M27): 2.2221
Th-T fluorescence, mean of three wells (Fig. 7a) (column suffix _50, measurement M28): 2.198
Th-T fluorescence, mean of three wells (Fig. 7a) (column suffix _50, measurement M29): 2.193
Th-T assay signal, mean of three wells (Fig. 7a) (column suffix _50, reading M1): 0.1908
Th-T assay signal, mean of three wells (Fig. 7a) (column suffix _50, reading M2): 0.1991
Th-T assay signal, mean of three wells (Fig. 7a) (column suffix _50, reading M3): 0.2032
Th-T assay signal, mean of three wells (Fig. 7a) (column suffix _50, reading M4): 0.2087
Th-T assay signal, mean of three wells (Fig. 7a) (column suffix _50, reading M5): 0.2172
Th-T assay signal, mean of three wells (Fig. 7a) (column suffix _50, reading M6): 0.2431
Th-T assay signal, mean of three wells (Fig. 7a) (column suffix _50, reading M7): 0.2722
Th-T assay signal, mean of three wells (Fig. 7a) (column suffix _50, reading M8): 0.3931
Th-T assay signal, mean of three wells (Fig. 7a) (column suffix _50, reading M9): 0.6726
Th-T assay signal, mean of three wells (Fig. 7a) (column suffix _50, reading M10): 1.1256
Th-T assay signal, mean of three wells (Fig. 7a) (column suffix _50, reading M11): 1.605
Th-T assay signal, mean of three wells (Fig. 7a) (column suffix _50, reading M12): 1.883
Th-T assay signal, mean of three wells (Fig. 7a) (column suffix _50, reading M13): 2.0174
Th-T assay signal, mean of three wells (Fig. 7a) (column suffix _50, reading M14): 2.101
Th-T assay signal, mean of three wells (Fig. 7a) (column suffix _50, reading M15): 2.147
Th-T assay signal, mean of three wells (Fig. 7a) (column suffix _50, reading M16): 2.173
Th-T assay signal, mean of three wells (Fig. 7a) (column suffix _50, reading M17): 2.183
Th-T assay signal, mean of three wells (Fig. 7a) (column suffix _50, reading M18): 2.192
Fig. 7a Th-T reading, mean of three wells (column suffix _50, reading M85): 2.067
Fig. 7a Th-T reading, mean of three wells (column suffix _50, reading M86): 2.077
Fig. 7a Th-T reading, mean of three wells (column suffix _50, reading M87): 2.082
Fig. 7a Th-T reading, mean of three wells (column suffix _50, reading M88): 2.092
Fig. 7a Th-T reading, mean of three wells (column suffix _50, reading M89): 2.095
Fig. 7a Th-T reading, mean of three wells (column suffix _50, reading M90): 2.096
Fig. 7a Th-T reading, mean of three wells (column suffix _50, reading M91): 2.085
Fig. 7a Th-T reading, mean of three wells (column suffix _50, reading M92): 2.089
Fig. 7a Th-T reading, mean of three wells (column suffix _50, reading M93): 2.088
Fig. 7a Th-T reading, mean of three wells (column suffix _50, reading M94): 2.094
Fig. 7a Th-T reading, mean of three wells (column suffix _50, reading M95): 2.0955
Fig. 7a Th-T reading, mean of three wells (column suffix _50, reading M96): 2.087
Fig. 7a Th-T reading, mean of three wells (column suffix _50, reading M97): 2.084
Fig. 7a Th-T reading, mean of three wells (column suffix _50, reading M98): 2.09
Fig. 7a Th-T reading, mean of three wells (column suffix _50, reading M99): 2.099
Fig. 7a Th-T reading, mean of three wells (column suffix _50, reading M100): 2.117
Fig. 7a Th-T reading, mean of three wells (column suffix _50, reading M101): 2.093
Fig. 7a Th-T reading, mean of three wells (column suffix _50, reading M102): 2.09
Fig. 7a Th-T reading, mean of three wells (column suffix _50, reading M103): 2.088
Fig. 7a Th-T reading, mean of three wells (column suffix _50, reading M104): 2.099
Fig. 7a Th-T reading, mean of three wells (column suffix _50, reading M105): 2.107
Fig. 7a Th-T reading, mean of three wells (column suffix _50, reading M106): 2.096
Th-T fluorescence, mean of three wells (compound at 10, reading M41 of time course): 3.473
Th-T fluorescence, mean of three wells (compound at 10, reading M42 of time course): 3.463
Th-T fluorescence, mean of three wells (compound at 10, reading M43 of time course): 3.47
Th-T fluorescence, mean of three wells (compound at 10, reading M44 of time course): 3.466
Th-T fluorescence, mean of three wells (compound at 10, reading M45 of time course): 3.48
Th-T fluorescence, mean of three wells (compound at 10, reading M46 of time course): 3.474
Th-T fluorescence, mean of three wells (compound at 10, reading M47 of time course): 3.473
Th-T fluorescence, mean of three wells (compound at 10, reading M48 of time course): 3.454
Th-T fluorescence, mean of three wells (compound at 10, reading M49 of time course): 3.4597
Th-T fluorescence, mean of three wells (compound at 10, reading M50 of time course): 3.479
Th-T fluorescence, mean of three wells (compound at 10, reading M51 of time course): 3.451
Th-T fluorescence, mean of three wells (compound at 10, reading M52 of time course): 3.467
Th-T fluorescence, mean of three wells (compound at 10, reading M53 of time course): 3.449
Th-T fluorescence, mean of three wells (compound at 10, reading M54 of time course): 3.468
Th-T fluorescence, mean of three wells (compound at 10, reading M55 of time course): 3.479
Th-T fluorescence, mean of three wells (compound at 10, reading M56 of time course): 3.4836
Th-T fluorescence, mean of three wells (compound at 10, reading M57 of time course): 3.456
Th-T fluorescence, mean of three wells (compound at 10, reading M58 of time course): 3.464
Th-T fluorescence, mean of three wells (compound at 10, reading M59 of time course): 3.461
Th-T fluorescence, mean of three wells (compound at 10, reading M60 of time course): 3.452
Th-T fluorescence, mean of three wells (compound at 10, reading M61 of time course): 3.461
Th-T fluorescence, mean of three wells (compound at 10, reading M62 of time course): 3.452
Th-T fluorescence, mean of three wells (compound at 20, reading M41 of time course): 3.421
Th-T fluorescence, mean of three wells (compound at 20, reading M42 of time course): 3.4495
Th-T fluorescence, mean of three wells (compound at 20, reading M43 of time course): 3.4108
Th-T fluorescence, mean of three wells (compound at 20, reading M44 of time course): 3.412
Th-T fluorescence, mean of three wells (compound at 20, reading M45 of time course): 3.402
Th-T fluorescence, mean of three wells (compound at 20, reading M46 of time course): 3.446
Th-T fluorescence, mean of three wells (compound at 20, reading M47 of time course): 3.447
Th-T fluorescence, mean of three wells (compound at 20, reading M48 of time course): 3.449
Th-T fluorescence, mean of three wells (compound at 20, reading M49 of time course): 3.413
Th-T fluorescence, mean of three wells (compound at 20, reading M50 of time course): 3.443
Th-T fluorescence, mean of three wells (compound at 20, reading M51 of time course): 3.447
Th-T fluorescence, mean of three wells (compound at 20, reading M52 of time course): 3.466
Th-T fluorescence, mean of three wells (compound at 20, reading M53 of time course): 3.442
Th-T fluorescence, mean of three wells (compound at 20, reading M54 of time course): 3.43
Th-T fluorescence, mean of three wells (compound at 20, reading M55 of time course): 3.418
Th-T fluorescence, mean of three wells (compound at 20, reading M56 of time course): 3.449
Th-T fluorescence, mean of three wells (compound at 20, reading M57 of time course): 3.4659
Th-T fluorescence, mean of three wells (compound at 20, reading M58 of time course): 3.449
Th-T fluorescence, mean of three wells (compound at 20, reading M59 of time course): 3.427
Th-T fluorescence, mean of three wells (compound at 20, reading M60 of time course): 3.432
Th-T fluorescence, mean of three wells (compound at 20, reading M61 of time course): 3.433
Th-T fluorescence, mean of three wells (compound at 20, reading M62 of time course): 3.454
Th-T fluorescence, mean of three wells (compound at 50, reading M41 of time course): 2.136
Th-T fluorescence, mean of three wells (compound at 50, reading M42 of time course): 2.134
Th-T fluorescence, mean of three wells (compound at 50, reading M43 of time course): 2.091
Th-T fluorescence, mean of three wells (compound at 50, reading M44 of time course): 2.118
Th-T fluorescence, mean of three wells (compound at 50, reading M45 of time course): 2.11
Th-T fluorescence, mean of three wells (compound at 50, reading M46 of time course): 2.107
Th-T fluorescence, mean of three wells (compound at 50, reading M47 of time course): 2.113
Th-T fluorescence, mean of three wells (compound at 50, reading M48 of time course): 2.125
Th-T fluorescence, mean of three wells (compound at 50, reading M49 of time course): 2.092
Th-T fluorescence, mean of three wells (compound at 50, reading M50 of time course): 2.091
Th-T fluorescence, mean of three wells (compound at 50, reading M51 of time course): 2.089
Th-T fluorescence, mean of three wells (compound at 50, reading M52 of time course): 2.103
Th-T fluorescence, mean of three wells (compound at 50, reading M53 of time course): 2.105
